According to patent publication US20170240556A1, “BIFLUORODIOXALANE-AMINO-BENZIMIDAZOLE KINASE INHIBITORS FOR THE TREATMENT OF CANCER, AUTOIMMUNEINFLAMMATION AND CNS DISORDERS” (4SC DISCOVERY GMBH, priority 2012, published 2017):

What was measured:
[1] = tested on: Wnt/β-catenin signaling pathway; test: Wnt reporter assay (CellSensor LEF/TCF-bla FreeStyle 293F cells); type: cell-based; settings: Homo sapiens; LEF/TCF-bla 293F cells, LiCl and mWnt3a stimulation
Protocol: The Wnt reporter assay was performed in stably transfected human HEK293 cells. Wnt signaling was induced by administration of Wnt3a protein and read out by β-Lactamase mediated cleavage of CCF4-AM and subsequent fluorescent detection.
CellSensor LEF/TCF-bla FreeStyle 293F cells (invitrogen #K1677) contain a beta-lactamase reporter gene under control of the β-catenin/LEF/TCF binding elements stably integrated into FreeStyle 293F cells. This cell line can be used to detect antagonists of the Wnt/β-catenin signaling pathway when stimulated by mouse Wnt3a or LiCl. The detection of beta-lactamase is possible with LiveBLAzer FRET—B/G Loading Kit (invitrogen #K1095) with CCF4-AM as subtrate.
Culture Medium: DMEM Medium +10% dialyzed FBS (PAN 2102-P290310), +1% NEAA (PAA M11-003), +1% P/S (Penicillin/Streptomycin, PAA P11-010) +25 mM HEPES (PAA S11-001), +5 μg/ml Blasticidin (PAA P05-017).
Cells (CellSensor LEF/TCF-bla FreeStyle 293F, invitrogen K1677) were split with Culture Medium to reach a confluence at the beginning of the assay of 80-90%.
At start of the assay, cells were harvested from culture and resuspend in assay medium at density of 0,66*10̂6 cells/ml. Subsequently, 60μ1 cell suspension were pipetted in each well of a Poly-D-Lysine 96 well Plate (BD #354640, vertical rows are marked 1 through 12, horizontal lanes are marked A through H),
Plates were subsequently incubated at 37° C. for at least 2 h.
To stimulate with Wnt3a, overnight prestimulation of Wnt signalling pathway with LiCl is necessary. Subsequently, an 8M aqueous LiCl solution was diluted 1:200 in assay medium, and 30 μl of said diluted LiCl solution was plated into the appropriate wells (see below pipetting scheme). Plates were then incubated at 37° C. over night.
Subsequently, compounds and controls were prepared as follows: mWnt3a (R&D 1324-WN, dissolved in PBS+0.1% BSA to 40 μg/ml) was diluted 1:100 in assay medium (=400 ng/ml). Compounds (Cpd) were diluted to a concentration of 10 mM in DMSO to prepare dilution series in assay medium (final concentrations 30 μM, 10 μM, 3 μM, 1 μM, 0.3 μM, 0.1 μM, 0.03 μM and 0.01 μM), which were pipetted into the appropriate wells (see below pipetting scheme). For each dilution of each compound, 3 replicates were tested. Final DMSO concentration was 0.3%.
LiCl and mWnt3a stimulated cells were used as High control (HC), unstimulated cells were used as low control, a blank was prepared from cell free medium plus mWnt3a, and a functional control was prepared with a known Wnt inhibitor (e.g. PKF118-310), final concentrations were as above.
Subsequently, the well was incubated for 5 h at 37° C.
At t=23 hours, FRET reagent mix (Loading Kit with CCF4-AM, Life Technologies #K1096) was prepared; per plate: 138 μl Solution B, 13.8 μl FRET-reagent, and 2300 μl Solution C. 24 μl FRET reagent mix were plated to each well, subsequently plates were incubated for at least 2 h in the dark (it is possible to incubate over night). Subsequently, plates were measured in the BMG FluorStar® plate reader at an emission waveltengths of 460 and 520 nm and with an excitation wavelength of 405 nm.
To determine potential cytotoxicity of the compounds, plates were centrifuge and the supernatant was discarded by dumping the plates. Subsequently, 100 μl Opti-MEM and 50 μl ViaLight (Lonza #LT07-321) Lysis Buffer were added to each well, followed by incubation for 10 min at room temperature (25° C.). Subsequently, 100 μl ViaLight reagent were added to each well, followed by incubation for 2 min at room temperature (25° C.) in the dark. Optionally, 200 μl of the obtained suspension were transferred to a white 96 well plate. The luminescence was measured with a Tecan Ultra plate reader.

[2] = molecular target: Casein kinase 1 delta (CSKN1D) (Homo sapiens, UniProt P48730); test: Casein kinase assay, CK1 delta; type: biochemical; settings: recombinant CSKN1D 5 nM, ATP 10 μM
Sequence of Casein kinase 1 delta (CSKN1D) (P48730 whole entry): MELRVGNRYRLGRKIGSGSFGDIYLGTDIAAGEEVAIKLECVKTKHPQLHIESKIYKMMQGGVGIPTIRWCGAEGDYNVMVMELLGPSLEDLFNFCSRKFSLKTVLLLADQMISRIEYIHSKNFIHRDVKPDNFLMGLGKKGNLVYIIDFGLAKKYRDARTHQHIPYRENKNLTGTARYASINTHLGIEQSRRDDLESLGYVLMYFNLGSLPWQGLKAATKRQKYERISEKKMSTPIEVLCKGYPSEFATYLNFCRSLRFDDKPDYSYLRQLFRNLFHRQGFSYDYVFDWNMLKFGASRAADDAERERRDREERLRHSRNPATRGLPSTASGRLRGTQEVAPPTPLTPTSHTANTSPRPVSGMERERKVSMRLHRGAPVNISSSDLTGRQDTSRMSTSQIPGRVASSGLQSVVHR

IC50 [1]: < 5000 nM | IC50 [2]: < 200 nM
SMILES: COc1cccc(C(=O)Nc2nc3cc4c(cc3[nH]2)OC(F)(F)O4)c1 [Compound 56, N-(2,2-difluoro-5H-[1,3]dioxolo[4′,5′:4,5]benzo[1,2-d]imidazol-6-yl)-3-methoxybenzamide]
